Measurements published in patent publication US20230203044A1, “PYRAZOLO[1,5-D][1,2,4]TRIAZINE-5(4H)-ACETAMIDES AS INHIBITORS OF THE NLRP3 INFLAMMASOME” (JANSSEN PHARMACEUTICA NV, priority 2020, published 2023).
pEC50, pIC50: −log10 of the molar value.

Assays:
[1] = tested on: NLRP3 inflammasome; assay: PBMC assay: IL-1β in LPS-stimulated human PBMCs (MSD); type: cell-based; conditions: human PBMCs, 100 ng/ml LPS for 6 hrs, IL-1β in supernatant via MSD, read-out: IL1β IC50
Method in brief: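 Human PBMCs from healthy donors, Ficoll-isolated and cryopreserved, were plated at 7.5×10^4 cells/well in RPMI/10% FBS for 30 min at 37 °C. Cells were then stimulated with 100 ng/ml LPS (final) for 6 h. IL-1β and TNF in supernatants were quantified by MSD immunoassay.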

[2] = tested on: TNF; assay: PBMC assay: TNF cytokine levels in LPS-stimulated human PBMCs (MSD); type: cell-based; conditions: 100 ng/ml LPS for 6 hrs, TNF in supernatant via MSD
Method in brief: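 Cryopreserved healthy-donor human PBMCs (7.5×10^4 cells/well, RPMI + 10% FBS) were preincubated with 1:3 serially diluted compounds for 30 min at 37 °C. They were then stimulated with 100 ng/ml LPS (final) for 6 h. Supernatant TNF was measured by MSD, and EC50 values were derived.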

| SMILES | pIC50 [1] | pEC50 [2] |
| --- | --- | --- |
| CC(C)c1nn(CC(=O)Nc2ccc3nncn3c2)c(=O)c2cc(C(O)C(F)(F)F)nn12 (stereo not shown) [Final Cpd 157] | < 5.00 | < 5.00 |
| CC(C)c1nn(CC(=O)Nc2ccc3nncn3c2)c(=O)c2cc(CC(F)(F)F)nn12 [Final Cpd 159] | 5.65 | < 5.00 |
| O=C(Cn1nc(C2CC2)n2nc(C3CC3)cc2c1=O)Nc1ccc2nncn2n1 [Final Cpd 163, N-([1,2,4]triazolo[4,3-b]pyridazin-6-yl)-2-(2,7-dicyclopropyl-4-oxopyrazolo[1,5-d][1,2,4]triazin-5(4H)-yl)acetamide] | 6.21 | < 5.00 |
| CC(C)c1nn(CC(=O)Nc2cc(F)[nH]c(=O)c2)c(=O)c2cc(C3CC3)nn12 [Final Cpd 164] | 6.27 | < 5.00 |
| CC(C)c1nn(CC(=O)Nc2ccc3nccn3n2)c(=O)c2cc(C3CC3)nn12 [Final Cpd 165] | 7.00 | < 5.00 |
| CC(C)c1nn(CC(=O)Nc2ccc3nncn3n2)c(=O)c2cc(C3CC3)nn12 [Final Cpd 166, N-([1,2,4]triazolo[4,3-b]pyridazin-6-yl)-2-(2-cyclopropyl-7-isopropyl-4-oxopyrazolo[1,5-d][1,2,4]triazin-5(4H)-yl)acetamide] | 7.36 | < 5.00 |
| CC(C)c1nn(CC(=O)Nc2ccc3nc(C(F)(F)F)cn3c2)c(=O)c2cc(C3CC3)nn12 [Final Cpd 167] | 6.42 | < 5.00 |
| CC(C)c1nn(CC(=O)Nc2ccc3nnc(C(F)(F)F)n3n2)c(=O)c2cc(C3CC3)nn12 [Final Cpd 168] | 6.08 | < 5.00 |
| CC(C)c1nn(CC(=O)Nc2ccc3nnnn3n2)c(=O)c2cc(C3CC3)nn12 [Final Cpd 169] | 6.80 | < 5.00 |
| CC(C)c1nn(CC(=O)Nc2ccc3nnc(Cl)n3n2)c(=O)c2cc(C3CC3)nn12 [Final Cpd 170] | 6.26 | < 5.00 |
| Cc1nnc2ccc(NC(=O)Cn3nc(C(C)C)n4nc(C5CC5)cc4c3=O)nn12 [Final Cpd 171] | 6.66 | < 5.00 |
| CC(C)c1nn(CC(=O)Nc2ccc(C(F)(F)F)nn2)c(=O)c2cc(C3CC3)nn12 [Final Cpd 172, 2-(2-cyclopropyl-7-isopropyl-4-oxopyrazolo[1,5-d][1,2,4]triazin-5(4H)-yl)-N-(6-(trifluoromethyl)pyridazin-3-yl)acetamide] | < 5.00 | < 5.00 |
| CC(C)c1nn(CC(=O)Nc2ccc(I)nn2)c(=O)c2cc(C3CC3)nn12 [Final Cpd 173] | < 5.00 | < 5.00 |
| CC(C)c1nn(CC(=O)Nc2ccc(C(F)F)nn2)c(=O)c2cc(C3CC3)nn12 [Final Cpd 174] | 5.17 | < 5.00 |
| CC(C)c1nn(CC(=O)Nc2ccc3nncn3c2)c(=O)c2cc(C(C)(F)F)nn12 [Final Cpd 175, N-([1,2,4]triazolo[4,3-a]pyridin-6-yl)-2-(2-(1,1-difluoroethyl)isopropyl-4-oxopyrazolo[1,5-d][1,2,4]triazin-5(4H)-yl)acetamide] | 6.66 | < 5.00 |
| CC(C)c1nn(CC(=O)Nc2ccc3nncn3n2)c(=O)c2cc(C(C)(F)F)nn12 [Final Cpd 176] | 7.09 | < 5.00 |
| C=C(OCC)c1cc2c(=O)n(CC(=O)Nc3ccncn3)nc(C(C)C)n2n1 [Final Cpd 179, 2-(2-(1-ethoxyvinyl)-7-isopropyl-4-oxopyrazolo[1,5-d][1,2,4]triazin-5(4H)-yl)-N-(pyrimidin-4-yl)acetamide] | < 5.00 | < 5.00 |
| CCOC(C)c1cc2c(=O)n(CC(=O)Nc3ccncn3)nc(C(C)C)n2n1 (stereo not shown) [Final Cpd 180, 2-(2-(1-ethoxyethyl)-74 sopropyl-4-oxopyrazolo[1,5-d][1,2,4]triazin-5(4H)-yl)-N-(pyrimidin-4-yl)acetamide] | < 5.00 | < 5.00 |
| CC(C)c1nn(CC(=O)Nc2ccc3nncn3c2)c(=O)c2c(N)c(C3CCC3)nn12 [Final Cpd 182] | 7.00 | < 5.00 |
| CC(=O)c1cc2c(=O)n(CC(=O)Nc3ccncn3)nc(C(C)C)n2n1 [Final Cpd 183, 2-(2-acetyl-7-isopropyl-4-oxopyrazolo[1,5-d][1,2,4]triazin-5(4H)-yl)-N-(pyrimidin-4-yl)acetamide] | 5.30 | < 5.00 |
| CCc1nn(CC(=O)Nc2ccncn2)c(=O)c2cc(NC(C)=O)nn12 [Final Cpd 184, 2-(2-acetamido-7-ethyl-4-oxopyrazolo[1,5-d][1,2,4]triazin-5(4H)-yl)-N-(pyrimidin-4-yl)acetamide] | < 5.00 | < 5.00 |
| CC(C)c1nn(CC(=O)Nc2ccncn2)c(=O)c2cc(N)nn12 [Final Cpd 186, 2-(2-amino-7-isopropyl-4-oxopyrazolo[1,5-d][1,2,4]triazin-5(4H)-yl)-N-(pyrimidin-4-yl)acetamide] | < 5.00 | < 5.00 |
| CC(C)c1nn(CC(=O)N[C@H]2CNCC[C@H]2O)c(=O)c2cc(C3CC3)nn12 [Final Cpd 188] | 6.13 | < 5.00 |
| CC(C)c1nn(CC(=O)N[C@@H]2CCCN(CC(F)(F)F)C2)c(=O)c2cc(C3CC3)nn12 [Final Cpd 189, (R)-2-(2-cyclopropyl-7-isopropyl-4-oxopyrazolo[1,5-d][1,2,4]triazin-5(4H)-yl)-N-(1-(2,2,2-trifluoroethyl)piperidin-3-yl)acetamide] | 5.94 | < 5.00 |
| CCN1CC[C@@H](O)[C@@H](NC(=O)Cn2nc(C(C)C)n3nc(C4CC4)cc3c2=O)C1 [Final Cpd 190, 2-(2-cyclopropyl-7-isopropyl-4-oxopyrazolo[1,5-d][1,2,4]triazin-5(4H)-yl)-N-((3S,4R)-1-ethyl-4-hydroxypiperidin-3-yl)acetamide] | 7.27 | < 5.00 |
| CC(C)c1nn(CC(=O)Nc2cc(C#N)c3nncn3c2)c(=O)c2cc(C3CC3)nn12 [Final Cpd 193, N-(8-cyano-[1,2,4]triazolo[4,3-a]pyridin-6-yl)-2-(2-cyclopropyl-7-isopropyl-4-oxopyrazolo[1,5-d][1,2,4]triazin-5(4H)-yl)acetamide] | 6.01 | < 5.00 |

Continued, values first:

| pIC50 [1] | pEC50 [2] | SMILES |
| --- | --- | --- |
| 7.05 | < 5.00 | CC(C)c1nn(CC(=O)N[C@H]2C[C@@](C)(O)C2)c(=O)c2cc(C3CC3(F)F)nn12 (stereo partly shown) [Final Cpd 153] |
| 5.52 | < 5.00 | CC(C)c1cc2c(=O)n(CC(=O)N[C@H]3C[C@@](C)(O)C3)nc(C(C)O)n2n1 (stereo partly shown) [Final Cpd 154] |
| 5.94 | < 5.00 | CC(C)c1cc2c(=O)n(CC(=O)Nc3ccc4nncn4c3)nc(C(C)O)n2n1 (stereo not shown) [Final Cpd 155] |
| 5.71 | < 5.00 | CC(C)c1cc2c(=O)n(CC(=O)Nc3ccncn3)nc(C(C)O)n2n1 (stereo not shown) [Final Cpd 156] |
| < 5.00 | < 5.00 | CC(C)c1nn(CC(=O)N[C@H]2C[C@@](C)(O)C2)c(=O)c2cc(C(O)C(F)(F)F)nn12 (stereo partly shown) [Final Cpd 158] |
| < 5.00 | < 5.00 | CC(C)c1nn(CC(=O)N[C@H]2C[C@@](C)(O)C2)c(=O)c2cc(CC(F)(F)F)nn12 [Final Cpd 160] |
| 6.96 | < 5.00 | CC(C)c1nn(CC(=O)N[C@H]2C[C@@](C)(O)C2)c(=O)c2cc(C(C)(F)F)nn12 [Final Cpd 161] |
| 6.32 | < 5.00 | CC(C)c1nn(CC(=O)N[C@H]2C[C@@](C)(O)C2)c(=O)c2c(N)c(C3CC3)nn12 [Final Cpd 181, 2-(3-amino-2-cyclopropyl-7-isopropyl-4-oxopyrazolo[1,5-d][1,2,4]triazin-5(4H)-yl)-N-((ls,3s)-3-hydroxy-3-methylcyclobutyl)acetamide] |
| 5.39 | < 5.00 | CC(C)c1nn(CC(=O)Nc2ccncn2)c(=O)c2cc(C(C)O)nn12 (stereo not shown) [Final Cpd 185, 2-(2-(1-hydroxyethyl)-7-sopropyl-4-oxopyrazolo[1,5-d][1,2,4]triazin-5(4H)-yl)-N-(pyrimidin-4-yl)acetamide] |
| 6.10 | < 5.00 | CC(C)c1nn(CC(=O)N[C@@H]2CCCNC2)c(=O)c2cc(C3CC3)nn12 [Final Cpd 187, (R)-2-(2-cyclopropyl-7-isopropyl-4-oxopyrazolo[1,5-d][1,2,4]triazin-5(4H)-yl)-N-(piperidin-3-yl)acetamide] |
| 6.21 | < 5.00 | CC[C@]1(O)C[C@@H](NC(=O)Cn2nc(C(C)C)n3nc(C4CC4)cc3c2=O)C1 [Final Cpd 192, 2-(2-cyclopropyl-7-isopropyl-4-oxopyrazolo[1,5-d][1,2,4]triazin-5(4H)-yl)-N-((1r,3s)-3-ethyl-3-hydroxycyclobutyl)acetamide] |
| < 5.00 | < 5.00 | COCCCc1nn(CC(=O)N[C@H]2C[C@@](C)(O)C2)c(=O)c2cc(C3CC3)nn12 [Final Cpd 194, 2-(2-cyclopropyl-7-(3-methoxypropyl)-4-oxopyrazolo[1,5-d][1,2,4]triazin-5(4H)-yl)-N-((ls,3s)-3-hydroxy-3-methylcyclobutyl)acetamide] |
| < 5.00 | < 5.00 | C[C@]1(O)C[C@@H](NC(=O)Cn2nc(CCCC(F)(F)F)n3nc(C4CC4)cc3c2=O)C1 [Final Cpd 195, 2-(2-cyclopropyl-4-oxo-7-(4,4,4-trifluorobutyl)pyrazolo[1,5-d][1,2,4]triazin-5(4H)-yl)-N-((ls,3s)-3-hydroxy-3-methylcyclobutyl)acetamide] |
| < 5.00 | < 5.00 | CCCCc1nn(CC(=O)N[C@H]2C[C@@](C)(O)C2)c(=O)c2cc(C3CC3)nn12 [Final Cpd 196] |
| < 5.00 | < 5.00 | C[C@]1(O)C[C@@H](NC(=O)Cn2nc(CC3CCOC3)n3nc(C4CC4)cc3c2=O)C1 (stereo partly shown) [Final Cpd 197] |
